Legend:
[1] = tested on: primary cortical stem cell and progenitor cell derived neural networks; type: cell-based, rat
[2] = tested on: passaged cortical stem and progenitor cell derived neural networks; type: cell-based, rat

Compound	mean spike rate (MSR) response of the network [1]	mean spike rate (MSR) response of the network [2]	raw action potential spike activity, single channel 10 second trace [2]
NC(CCCP(=O)(O)O)C(=O)O (racemic) [APV, DL-2-amino-5-phosphonovaleric acid]	No additional decrease in network activity	decrease in MSR	incremental effects of APV on both spike rate and burst pattern
N#Cc1cc2c(cc1[N+](=O)[O-])=NC(=O)C(=O)N=2 [CNQX, 6-cyano-7-nitroquinoxaline-2,3-dione]	decrease in MSR	further decrease in activity	near total blockade of action potentials
cadmium chloride		responsive	
